This note sets out measurements from patent US4820723A, “Disubstituted tetrazole leukotriene antagonists and methods for their use thereas” (Eli Lilly and Company, priority 1987, dated 1989).

Usually ED50 stands for the dose at which the effect has come halfway, by size or by number of responders. A high value points to a need for a large dose.

Experiment [1] has as its system LTD4 evoked ileal contractions. Put plainly: LTD4 antagonism: inhibition of LTD4 evoked contractions of isolated guinea pig ileum. Set-up: species or system Male, Hartley guinea pigs. The note with it: 5 min exposure to drug, 50% inhibition of LTD4 responses, 37° C. On the procedure:
Male, Hartley guinea pigs weighing 200-450 grams were killed by decapitation. A section of terminal ileum was removed, the lumen cleaned, and the tissue divided into 2.5 cm segments. The ilea were mounted in 10 ml tissue baths containing Krebs-bicarbonate solution of the following composition in mmoles/liter: KCl, 4.6; CaCl2 ·2H2 O, 1.2; KH2 PO4, 1.2; MgSO4 ·7H2 O, 1.2; NaCl, 118.2; NaHCO3, 24.8; and dextrose, 10.0. The bath fluid was maintained at 37° C. and aerated with 95 percent oxygen and 5 percent CO2. In addition, the buffer contained 1×10^-6 M atropine to reduce ileal spontaneous activity. Isometric measurements were made with a Grass FT03C force-displacement transducer and recorded on a Grass polygraph as change in grams of force. A passive force of 0.5 g. was applied to the tissues. After an appropriate equilibration period, single submaximal control responses to pure LTD4 were obtained. Following a five minute exposure of the ileum to an experimental drug, the control concentration of LTD4 was added to the tissue bath. The response of the ileum to LTD4 in the presence of the drug was compared to the response in the absence of the drug. Various degrees of LTD4 antagonism were obtained using 2-4 different concentrations of an experimental compound on a single ileum.
Percent inhibition of LTD4 evoked ileal contractions

The test system of experiment [2] is pressor response to leukotriene D4. Put plainly: decrease of LTD4 pressor response in pithed rats. The format is in vivo, Adult male Sprague-Dawley rats. Conditions: Rattus norvegicus, iv, 0.25 h, 15 minutes prior to leukotriene D4 challenge (10 μg/kg, i.v.); dose to decrease pressor response by 50%. On the procedure: A further measure of the final product's activity is their ability to decrease the pressor response in pithed rats that are challenged by LTD4. This activity is measured by the following standard procedure
Adult male Sprague-Dawley rats, weighting approximately 300-500 grams, are anesthetized with pentobarbital sodium (60 mg/kg, i.p.). The trachea is cannulated and the rats are ventilated with room air delivered from a rodent respirator (Harvard, model 680; tidal volume of 1 ml/100 grams body weight, 60 cycles/minute). Rats are pithed by passing a steel rod through the right orbit and down the entire length of the spinal column. The rod is left in position for the duration of the experiment. Pulsatile arterial blood pressure is measured from a cannulated carotid artery using a Stathamtransducer (P231D). Mean arterial blood pressure is calculated as diastolic pressure plus 1/3 pulse pressure. Drug solutions are administered i.v. through a catheter placed in a jugular vein. Arterial blood pressure is recorded on a multichannel oscillograph (Beckman, model R511A).
Groups of pithed rats, usually 4-6/group, are pretreated i.v. with a dose of test compound or vehicle (control experiments) 15 minutes prior to leukotriene D4 challenge (10 μg/kg, i.v.). Usually 3-4 doses of the test compound are evaluated in a given study. Blood pressure responses to leukotriene D4 in control and drug-treated pithed rats are then compared and an ED50 dose of antagonist is estimated. ED50 (95% confidence interval) is the calculated dose of antagonist (mg/kg, i.v.) required to decrease the pressor response to leukotriene D4 by 50%.
The ED50 values of selected final products of Formula I are set forth below in Table 2.

For `CCCc1c(OCCCCc2nnn(CC(=O)O)n2)ccc(C(C)=O)c1O` [A], the “-log IC50” value in experiment [1] is on record as 6.68. Also, the ED50 in experiment [2] is greater than 30 mg/kg. Turning to `CCCc1c(OCCCCc2nnnn2CC(=O)O)ccc(C(C)=O)c1O` [B], the “-log IC50” value in experiment [1] is 5.88. This compound also gave a 50% effective dose (ED50) in experiment [2] greater than 30 mg/kg.

Consider `CCCc1c(OCCCc2nnn(CC(=O)O)n2)ccc(C(C)=O)c1O` [C], for which the “-log IC50” value in experiment [1] amounted to 5.82. On the same count and under the same terms, for `CCCc1c(OCCCc2nnnn2CC(=O)O)ccc(C(C)=O)c1O` [D] the value was 5.95. As for `CCCc1c(OCCCCCCc2nnn(CC(=O)O)n2)ccc(C(C)=O)c1O` [E], in experiment [1], the “-log IC50” value was 6.83. Besides, the ED50 in experiment [2] is greater than 30 mg/kg. For `CCCc1c(OCCCCc2nnn(CCCCc3nnn[nH]3)n2)ccc(C(C)=O)c1O` [Example 23A, 5-[4-(4-Acetyl-3-hydroxy-2-(n-propyl)phenoxy)butyl]-2[4-(1H-tetrazol-5-yl)butyl]-2H-tetrazole], in that order: 7.65 and 7.5 mg/kg. As for `CCCc1c(OCCCCc2nnnn2CCCCC(=O)O)ccc(C(C)=O)c1O` [Example 24], the “-log IC50” value in experiment [1] stood at 6.14.

As for `CCCc1c(OCCCCc2nnn(CCCc3nn[nH]n3)n2)ccc(C(C)=O)c1O` [Example 25], in experiment [1], the “-log IC50” value is reported as 7.42. The same compound showed an ED50 in experiment [2] of 8.4 mg/kg. On the same counts, the results for `CCCc1c(OCCCCc2nnn(CCCCCCc3nn[nH]n3)n2)ccc(C(C)=O)c1O` [Example 26, 5-4-(4-Acetyl-3-hydroxy-2-(n-propyl)phenoxybutyl]-2-[6-(1H-tetrazol-5-yl)hexyl]-2H-tetrazole] are 7.63 and 18.6 mg/kg. As to `CCCc1c(OCCCCc2nnn(CCCCCCC(=O)O)n2)ccc(C(C)=O)c1O` [Example 27, 5-[4-(4-Acetyl-3-hydroxy-2-propylphenoxy)butyl]-2H-tetrazole-2-(7-heptanoicacid)], the “-log IC50” value in experiment [1] is reported as 7.05. In addition, in experiment [2], the median effective dose (ED50) is 12.7 mg/kg. For `CCCc1c(OCCCCc2nnn(CCCCCc3nnn[nH]3)n2)ccc(C(C)=O)c1O` [Example 28, 5-[4-(4-Acetyl-3-hydroxy-2-(n-propyl)phenoxy)butyl]-2-[5-(1H-tetrazol-5-yl)pentyl]-2H-tetrazole], in that order: 7.57 and 9.7 mg/kg.

Consider `CCCc1c(OCCCCc2nnn(CCCCCC(=O)O)n2)ccc(C(C)=O)c1O` [Example 29], for which the “-log IC50” value in experiment [1] turned out to be 7.35. Further, the 50% effect level in experiment [2] (ED50) was put at a dose of 8.7 mg/kg.

`CCCc1c(OCCCCc2nnn(Cc3ccc(-c4nn[nH]n4)cc3)n2)ccc(C(C)=O)c1O` [Example 30]: the “-log IC50” value in experiment [1] worked out at 7.54. This compound also gave an ED50 in experiment [2] of 16.8 mg/kg. For the compound `CCCc1c(OCCCCc2nnnn2Cc2ccc(C(=O)O)cc2)ccc(C(C)=O)c1O` [Example 33, 5-[4-(4-Acetyl-3-hydroxy-2-(n-propyl)phenoxy)butyl]-1H-tetrazole-1-[para-methylenebenzoic acid]], the “-log IC50” value in experiment [1] turned out to be 6.30. As for `CCCc1c(OCCCCc2nnn(Cc3cccc(-c4nnn[nH]4)c3)n2)ccc(C(C)=O)c1O` [Example 34, 5-[4-(4-Acetyl-3-hydroxy-2-(n-propyl)phenoxy)butyl]-2-[meta-(1H-tetrazol-5-yl)benzyl]-2H-tetrazole], the “-log IC50” value in experiment [1] was found to be 7.52. Further, the median effective dose (ED50) in experiment [2] came out at 25.5 mg/kg. Turning to `CCCc1c(OCCCCc2nnn(Cc3cccc(C(=O)O)c3)n2)ccc(C(C)=O)c1O` [Example 35, 5-[4-(4-Acetyl-3-hydroxy-2-(n-propyl)phenoxy)butyl]-2H-tetrazole-2-(α-methylene-m-benzoic acid)], in experiment [1], the “-log IC50” value is on record as 7.15. The 50% effect level in experiment [2] (ED50) was put at a dose of 27.5 mg/kg. Consider `CCCc1c(OCCCCCc2nnn(CCCc3nn[nH]n3)n2)ccc(C(C)=O)c1O` [Example 38], for which the “-log IC50” value in experiment [1] is 6.62. With `CCCc1c(OCCCCCc2nnn(CCCC(=O)O)n2)ccc(C(C)=O)c1O` [Example 39, 5-[5-(Acetyl-3-hydroxy-2-(n-propyl)phenoxy)pentyl]-2-[4-butanoic acid]-2H-tetrazole], the “-log IC50” value in experiment [1] is given as 6.37. Also, it took a dose of 25.8 mg/kg to reach the 50% effect level in experiment [2] (ED50). For the compound `CCCc1c(OCCCCCc2nnn(CCCCc3nnn[nH]3)n2)ccc(C(C)=O)c1O` [Example 40, 5-[5-(4-Acetyl-3-hydroxy-2-(n-propyl)phenoxy)pentyl]-2-[4-(1H-tetrazol-5-yl)butyl]-2H-tetrazole], the “-log IC50” value in experiment [1] turned out to be 6.83. With `CCCc1c(OCCCCc2nnn(CCC(=O)O)n2)ccc(C(C)=O)c1O` [Example 44, 5-[4-(4-Acetyl-3-hydroxy-2-propylphenoxy)butyl]-2H-tetrazol-2-(3-propionic acid)], the “-log IC50” value in experiment [1] is on record as 6.81. Besides, the ED50 in experiment [2] worked out at 10.6 mg/kg. With `CCCc1c(OCCCCc2nnnn2CCC(=O)O)ccc(C(C)=O)c1O` [Example 45, 5-[4-(4-Acetyl-3-hydroxy-2-(n-propyl)phenoxy)butyl]-1H-tetrazole-1-[3-propionic acid]], the “-log IC50” value in experiment [1] was found to be 5.83. The compound also had an ED50 in experiment [2] greater than 30 mg/kg. On the same counts, the results for `CCCc1c(OCCCCc2nnn(CCCC(=O)O)n2)ccc(C(C)=O)c1O` [Example 46, 5-[4-(4-Acetyl-3-hydroxy-2-propylphenoxy)butyl]-2H-tetrazol-2-(4-butyric acid)] are 7.12 and 8.1 mg/kg. Take `CCCc1c(OCCCCc2nnnn2CCCC(=O)O)ccc(C(C)=O)c1O` [Example 47, 5-[4-(4-Acetyl-3-hydroxy-2-(n-propyl)phenoxy)butyl]-1-[4-butanoic acid]-1H-tetrazole]: the “-log IC50” value in experiment [1] was determined as 5.89. Moreover, the ED50 in experiment [2] was greater than 30 mg/kg.

On to `CCCc1c(Oc2ccc(-c3nnn(CCCc4nn[nH]n4)n3)cc2)ccc(C(C)=O)c1O` [Example 59], for which the “-log IC50” value in experiment [1] was 7.50. The same measure, in the same setting: for `CCCc1c(Oc2ccc(-c3nnn(CCCC(=O)O)n3)cc2)ccc(C(C)=O)c1O` [Example 60, 5-[para-(4-Acetyl-3-hydroxy-2-(n-propyl)phenoxy)phenyl]-2H-tetrazole-2-[4-butanoic acid]] the value was 7.26. On the same count and under the same terms, to `CCCc1c(OCCCc2nnnn2CCCCC(=O)O)ccc(C(C)=O)c1O` [Example 61, 5-[3-(4-Acetyl-3-hydroxy-2-(n-propyl)phenoxy)propyl]-1H-tetrazole-1-[5-pentanoic acid]] belongs 5.20; to `CCCc1c(OCCCc2nnn(CCCCC(=O)O)n2)ccc(C(C)=O)c1O` [Example 62, 5-[3-(4-Acetyl-3-hydroxy-2-propylphenoxy)-propyl]-2H-tetrazol-2-(5-pentanoic acid)], 6.47.

As to `CCCc1c(OCCCCn2nnc(CCCC(=O)O)n2)ccc(C(C)=O)c1O` [Example 64, 2-[4-(4-Acetyl-3-hydroxy-2-(n-propyl)phenoxy)-butyl]-2H-tetrazole-5-butanoic acid], the “-log IC50” value in experiment [1] was found to be 7.51.

Regarding `CCCc1c(OCCCCn2nnnc2CCCC(=O)O)ccc(C(C)=O)c1O` [Example 65, 1-4-(4-acetyl-3-hydroxy-2-(n-propylphenoxy)butyl]-1H-tetrazole-5-butanoic acid], the “-log IC50” value in experiment [1] was 6.18. For the compound `CCCc1c(OCCCCn2nnc(Cc3ccc(C(=O)O)cc3)n2)ccc(C(C)=O)c1O` [Example 67, 4-[[2-[4-(4-Acetyl-3-hydroxy-2-(n-propyl)phenoxy)butyl]-2H-tetrazol-5-yl]methyl]benzoic acid], the “-log IC50” value in experiment [1] was determined as 7.25. Same read-out and setting: for `CCCc1c(OCCCCn2nnnc2Cc2ccc(C(=O)O)cc2)ccc(C(C)=O)c1O` [Example 68] the value was 6.66.
